Test results: PMC11474028, “Lipopeptide antibiotics disrupt interactions of undecaprenyl phosphate with UptA” (Proceedings of the National Academy of Sciences of the …, 2024)

System: UptA H119A
Experiment: Native MS of C55-P binding to UptA mutant H119A
Parameters: species or system Bacillus subtilis
Conditions: 5 µM protein, 10 µM C55-P, pH 8.02, 0.05% LDAO, 200 mM ammonium acetate, collisional activation 100 V; three biological replicates
Description: Conserved arginine residues in the putative membrane reentrant loops of E. coli DedA proteins YqjA (R130) and YghB (R136) are important for the cellular role of these proteins ([36]). […] How these residues impact substrate interactions, however, is not known. Based on the model structure of UptA predicted by AlphaFold, the R112 residue should engage Q64 while R118 is able to form hydrogen bonds with E32, H119, and W146 to potentially stabilize the membrane reentrant loops (Fig. 3A). To test for the impact of these residues on C55-P binding, we generated the E32A, Q64A, R112A, R118A, H119A, and W146A UptA single mutants. After purification of the proteins, using the same protocol as the wild type (WT) (Materials and Methods and SI Appendix, Fig. S5), we equilibrated aliquots of each protein variant (5 µM) with C55-P (10 µM) and recorded spectra using the same instrument settings. […] We additionally generated a double mutant R112E/R118E in which the polarity of both native arginine residues in the wild type are reversed.
Expression and purification of UptA
Plasmids were used to transform chemically competent E. coli C43(DE3) cells (Lucigen) and selected on LB/Agar containing 100 μg/ml ampicillin at 37 °C. Single colonies were used to inoculate 60 mL LB containing 100 μg/ml ampicillin and were grown at 37 °C overnight for 16 h. […]

CC(C)=CCC/C(C)=C/CC/C(C)=C/CC/C(C)=C\CC/C(C)=C\CC/C(C)=C\CC/C(C)=C\CC/C(C)=C\CC/C(C)=C\CC/C(C)=C\CC/C(C)=C\COP(=O)(O)O [C55-P, undecaprenyl phosphate]
reduction in C55-P binding intensity compared to wild type, H119A (in words): modest reduction
